We go through eight compounds from patent US12371454B2, “Cyclic peptide compound having Kras inhibitory action” (priority 2019, dated 2025).

SMILES strings stand for the structures. Starred links: 1 amine or outer side, 2 acyl side, 3 side chain; linkers in the order of their positions; H or OH if unused. Positions of bridges follow the written chain, without caps; N, C: chain ends. Non-standard residues stand in square brackets, D forms with d. Residues, ends and D or L forms follow the SMILES beside them. *: point of attachment. hPhe(3,5-F2-4-CF3) = N[C@@H](CCc1cc(F)c(C(F)(F)F)c(F)c1)C(=O)O; hPhe(3-Cl-4-CF3) = N[C@@H](CCc1ccc(C(F)(F)F)c(Cl)c1)C(=O)O; hPhe(3-F,4-CF3) = N[C@@H](CCc1ccc(C(F)(F)F)c(F)c1)C(=O)O; X28 = CCCCOc1cc(CC[C@H](N[*:1])C(=O)[*:2])cc(Cl)c1Cl; NMePhe(4-CF3) = CN[C@@H](Cc1ccc(C(F)(F)F)cc1)C(=O)O; 3Oxa8azabicyclo(3.2.1)octane = C1CC2COCC1N2*; NMePhe(4-Me) = CN[C@@H](Cc1ccc(C)cc1)C(=O)O; NMedβ3hAla = C[C@H](CC(=O)[*:2])N(C)[*:1]; NMeAla(cPent) = CN[C@@H](CC1CCCC1)C(=O)O; NMeGly(cBu) = CN[C@H](C(=O)O)C1CCC1; NMeY = CN[C@@H](Cc1ccc(O)cc1)C(=O)O; NMeCha = CN[C@@H](CC1CCCCC1)C(=O)O; NMeChg = CN[C@H](C(=O)O)C1CCCCC1; NMeD = CN[C@@H](CC(=O)O)C(=O)O; NMeL = CN[C@@H](CC(C)C)C(=O)O; NMeV = CN[C@H](C(=O)O)C(C)C; NMeAbu = CC[C@H](NC)C(=O)O; Morpholide = C1CN(*)CCO1; NMeA = CN[C@@H](C)C(=O)O; Piperidide = C1CCN(*)CC1; Pyrrolidide = C1CCN(*)C1; Ac5c = NC1(C(=O)O)CCCC1; CF3 = FC(F)(F)*; Sar = CNCC(=O)O Some results are limits rather than exact numbers.

In test [1] the target is T1, Kras and SOS1 (biotin-tagged human Kras loaded with GDP, His-tagged human SOS1) (Homo sapiens, UniProt P01116, G12D).
T1 construct: made in house; host or cells: E. coli (stated for Kras only)
Description: Protein-protein interaction inhibition between Kras and SOS1 (KrasGl2D-SOS PPI) using AlphaScreen. The test is classed as binding. Particulars: AlphaScreen; biotin-tagged human Kras loaded with GDP, His-tagged human SOS1; read-out: KRAS G12D-SOS PPI IC50. In short, it runs like this:
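Energy transfer from nickel-chelate donor beads bound to His-SOS1 to streptavidin acceptor beads bound to biotin-Kras, expressed in E. coli and loaded with GDP after purification, was monitored. Donors were excited at 680 nm; singlet oxygen reaching acceptors gave emission read at 520-620 nm.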
Background: Alpha assays give light when donor and acceptor beads are brought close together.

In test [2] the test system is Human pancreatic cancer cell line AsPC-1. Description: Measurement of AsPC-1 cell growth inhibition (AsPC-1 CGI). Conditions: 96 h. The test is classed as cell-based. In short, it runs like this:
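AsPC-1 cells in 15% FBS RPMI-1640 were exposed to test compound for 96 hours at 37° C, with CellTiter-Glo as endpoint.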

T1 sequence (P01116 1-188 isoform P01116-2 G12D): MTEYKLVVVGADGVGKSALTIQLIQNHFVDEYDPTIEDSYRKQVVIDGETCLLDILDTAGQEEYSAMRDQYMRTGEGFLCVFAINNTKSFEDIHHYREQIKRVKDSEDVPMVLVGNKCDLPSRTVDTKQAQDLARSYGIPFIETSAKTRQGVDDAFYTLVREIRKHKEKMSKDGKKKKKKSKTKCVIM

Turning to `CC[C@H](C)[C@@H]1NC(=O)[C@H](CC(C)C)N(C)C(=O)C[C@@H](C)N(C)C(=O)[C@H](C(C)C)N(C)C(=O)C2(CCCC2)NC(=O)[C@@H]2CCCN2C(=O)[C@H](CCc2ccc(C(F)(F)F)c(Cl)c2)NC(=O)CN(C)C(=O)[C@H](Cc2ccc(OC(F)(F)F)cc2)N(C)C(=O)CN(C)C(=O)CN(C)C1=O` [Compound 1563] (cyclo([Ac5c][NMeV][NMedβ3hAla][NMeL]I[Sar][Sar][NMeY](CF3)[Sar][hPhe(3-Cl-4-CF3)]P)), the half-inhibitory concentration (IC50) in test [1] was 6.2 nM; in test [2], 50 to 100 nM.

As for `CC[C@H](C)[C@@H]1NC(=O)[C@H](CC)N(C)C(=O)C[C@@H](C(=O)N2C3CCC2COC3)N(C)C(=O)[C@H](C2CCCCC2)N(C)C(=O)C2(CCCC2)NC(=O)[C@@H]2CCCN2C(=O)[C@H](CCc2ccc(C(F)(F)F)c(Cl)c2)NC(=O)CN(C)C(=O)[C@H](CC2CCCC2)N(C)C(=O)CN(C)C(=O)CN(C)C1=O` [Compound 1877] ([NMeAbu]I[Sar][Sar][NMeAla(cPent)][Sar][hPhe(3-Cl-4-CF3)]P[Ac5c][NMeChg][NMeD]-{3Oxa8azabicyclo(3.2.1)octane}; lactam N-11), the figures for the IC50 in test [1] and in test [2] were 0.86 nM and 100 to 500 nM, respectively.

As for `CC[C@H](C)[C@@H]1NC(=O)[C@H](C2CCCCC2)N(C)C(=O)C[C@@H](C(=O)N2CCCCC2)N(C)C(=O)[C@H](C2CCCCC2)N(C)C(=O)C2(CCCC2)NC(=O)[C@@H]2CCCN2C(=O)[C@H](CCc2ccc(C(F)(F)F)c(Cl)c2)NC(=O)CN(C)C(=O)[C@H](CC2CCCCC2)N(C)C(=O)CN(C)C(=O)CN(C)C1=O` [Compound 849] ([NMeChg]I[Sar][Sar][NMeCha][Sar][hPhe(3-Cl-4-CF3)]P[Ac5c][NMeChg][NMeD]-Piperidide; lactam N-11), the IC50 in test [1] is 1.9 nM; in test [2], 100 to 500 nM.

On to `CCCCOc1cc(CC[C@@H]2NC(=O)CN(C)C(=O)[C@H](CC3CCCCC3)N(C)C(=O)CN(C)C(=O)CN(C)C(=O)[C@H]([C@@H](C)CC)NC(=O)[C@H](C)N(C)C(=O)C[C@@H](C(=O)N3CCCCC3)N(C)C(=O)[C@H](C3CCCCC3)N(C)C(=O)C3(CCCC3)NC(=O)[C@@H]3CCCN3C2=O)cc(Cl)c1Cl` [Compound 2066] ([NMeA]I[Sar][Sar][NMeCha][Sar][X28]P[Ac5c][NMeChg][NMeD]-Piperidide; lactam N-11), for which the IC50 in test [1] was 63 nM; in test [2], over 500 nM.

In the case of `CC[C@H](C)[C@@H]1NC(=O)[C@H](CC(C)C)N(C)C(=O)C[C@@H](C(=O)N2CCOCC2)N(C)C(=O)[C@H](C2CCCCC2)N(C)C(=O)C2(CCCC2)NC(=O)[C@@H]2CCCN2C(=O)[C@H](CCc2ccc(C(F)(F)F)c(Cl)c2)NC(=O)CN(C)C(=O)[C@H](Cc2ccc(C(F)(F)F)cc2)N(C)C(=O)CN(C)C(=O)CN(C)C1=O` [Compound 1948] ([NMeL]I[Sar][Sar][NMePhe(4-CF3)][Sar][hPhe(3-Cl-4-CF3)]P[Ac5c][NMeChg][NMeD]-Morpholide; lactam N-11), the IC50 in test [1] is 0.54 nM; in test [2], 20 to 50 nM.

In the case of `CC[C@H](C)[C@@H]1NC(=O)[C@H](CC(C)C)N(C)C(=O)C[C@@H](C(=O)N2CCCCC2)N(C)C(=O)[C@H](C(C)C)N(C)C(=O)C2(CCCC2)NC(=O)[C@@H]2CCCN2C(=O)[C@H](CCc2ccc(C(F)(F)F)c(F)c2)NC(=O)CN(C)C(=O)[C@H](CC2CCCCC2)N(C)C(=O)CN(C)C(=O)CN(C)C1=O` [Compound 1454] ([NMeL]I[Sar][Sar][NMeCha][Sar][hPhe(3-F,4-CF3)]P[Ac5c][NMeV][NMeD]-Piperidide; lactam N-11), the IC50 in test [1] is 11 nM; in test [2] it was 100 to 500 nM.

For `CC[C@H](C)[C@@H]1NC(=O)[C@H](C2CCC2)N(C)C(=O)C[C@@H](C(=O)N2CCCC2)N(C)C(=O)[C@H](C2CCCCC2)N(C)C(=O)C2(CCCC2)NC(=O)[C@@H]2CCCN2C(=O)[C@H](CCc2cc(F)c(C(F)(F)F)c(F)c2)NC(=O)CN(C)C(=O)[C@H](CC2CCCCC2)N(C)C(=O)CN(C)C(=O)CN(C)C1=O` [Compound 1275] ([NMeGly(cBu)]I[Sar][Sar][NMeCha][Sar][hPhe(3,5-F2-4-CF3)]P[Ac5c][NMeChg][NMeD]-Pyrrolidide; lactam N-11), the IC50 in test [1] was 0.65 nM; in test [2], 20 to 50 nM.

With `CC[C@H](C)[C@@H]1NC(=O)[C@H](CC(C)C)N(C)C(=O)C[C@@H](C)N(C)C(=O)[C@H](C2CCCCC2)N(C)C(=O)C2(CCCC2)NC(=O)[C@@H]2CCCN2C(=O)[C@H](CCc2ccc(C(F)(F)F)c(Cl)c2)NC(=O)CN(C)C(=O)[C@H](Cc2ccc(C)cc2)N(C)C(=O)CN(C)C(=O)CN(C)C1=O` [Compound 1682] (cyclo([Ac5c][NMeChg][NMedβ3hAla][NMeL]I[Sar][Sar][NMePhe(4-Me)][Sar][hPhe(3-Cl-4-CF3)]P)), the values for the IC50 in test [1] and in test [2] were 2.4 nM and 100 to 500 nM, respectively.

A word on the IC50: it is the concentration that gives 50% inhibition.
